Results from ChEMBL document CHEMBL1121768, “Synthesis and platelet aggregation inhibitory activity of 4,5-bis(aryl)-2-substituted-thiazoles” (J Med Chem, 1981).
Values after ≈ are worked out from the molar mass of the structure shown.

What was measured:
Type in all cases: functional
Homo sapiens = organism: Homo sapiens; experiment: In vitro inhibition of collagen-induced platelet aggregation in human platelet rich plasma
Cavia porcellus [1] = experiment: Percent inhibition of platelet aggregation following oral administration to guinea pigs at a dose of 5 mg/kg
Cavia porcellus [2] = experiment: Percent inhibition of platelet aggregation following oral administration to guinea pigs at a dose of 10 mg/kg
Cavia porcellus [3] = experiment: Percent inhibition of platelet aggregation following oral administration to guinea pigs at a dose of 1 mg/kg
Cavia porcellus [4] = organism: Cavia porcellus; experiment: In vitro inhibition of collagen-induced platelet aggregation in guinea pig platelet rich plasma
Cavia porcellus [5] = experiment: Percent inhibition of platelet aggregation at 16 hours following oral administration to guinea pigs at 5 mg/kg
Cavia porcellus [6] = experiment: Percent inhibition of platelet aggregation at 2 hours following oral administration to guinea pigs at 5 mg/kg
Cavia porcellus [7] = experiment: Percent inhibition of platelet aggregation at 24 hours following oral administration to guinea pigs at 5 mg/kg
Cavia porcellus [8] = experiment: Percent inhibition of platelet aggregation at 8 hours following oral administration to guinea pigs at 5 mg/kg
Cavia porcellus [9] = experiment: Percent inhibition of platelet aggregation at 4 hours following oral administration to guinea pigs at 5 mg/kg
Cavia porcellus [10] = experiment: Percent inhibition of platelet aggregation following oral administration to guinea pigs at a dose of 0.1 mg/kg
Cavia porcellus [11] = experiment: Percent inhibition of platelet aggregation at 12 hours following oral administration to guinea pigs at 5 mg/kg
Cavia porcellus [12] = experiment: Percent inhibition of platelet aggregation at 0 hours following oral administration to guinea pigs at 5 mg/kg
Cavia porcellus [13] = experiment: Percent inhibition of platelet aggregation following oral administration to guinea pigs at a dose of 0.5 mg/kg

SMILES | IC50 (Homo sapiens) [mg/L] | inhibition in vivo at 5 mg/kg (Cavia porcellus [1]) [%] | inhibition in vivo at 10 mg/kg (Cavia porcellus [2]) [%] | inhibition in vivo at 1 mg/kg (Cavia porcellus [3]) [%] | IC50 (Cavia porcellus [4]) [mg/L] | also measured
COC(=O)C(C)(C)c1nc(-c2ccc(OC)cc2)c(-c2ccc(OC)cc2)s1 | 0.0032 (≈ 0.00805 µM) | 100 | 100 | 27 | 0.01 (≈ 0.0252 µM) | –
CC(=O)Oc1ccccc1C(=O)O [ASPIRIN] | 10 (≈ 55.5 µM) | – | – | – | – | –
COc1ccc(-c2nc(CC(N)=O)sc2-c2ccc(OC)cc2)cc1 | 0.0032 (≈ 0.00903 µM) | 96 | 100 | 39 | – | –
FC(F)(F)c1nc(-c2ccccc2)c(-c2ccccc2)s1 | 0.32 (≈ 1.05 µM) | – | – | – | – | –
COc1ccc(-c2nc(C)sc2-c2ccc(OC)cc2)cc1 | 0.00032 (≈ 0.00103 µM) | – | – | – | – | –
COC(=O)Cc1nc(-c2ccc(OC)cc2)c(-c2ccc(OC)cc2)s1 | 0.0001 (≈ 0.000271 µM) | – | – | – | – | –
CC(C(=O)O)c1ccc(-c2ccccc2)c(F)c1 (centres undefined) [FLURBIPROFEN] | 0.32 (≈ 1.31 µM) | – | – | – | 0.32 (≈ 1.31 µM) | –
FC(F)(F)c1nc(-c2ccc(Cl)cc2)c(-c2ccc(Cl)cc2)s1 | 0.032 (≈ 0.0855 µM) | – | – | – | – | –
COc1ccc(-c2nc(CCO)sc2-c2ccc(OC)cc2)cc1 | 0.00032 (≈ 0.000937 µM) | 79 | 100 | 9 | 0.0032 (≈ 0.00937 µM) | –
COc1ccc(-c2nc(C(C)C)sc2-c2ccc(OC)cc2)cc1 | 0.0032 (≈ 0.00943 µM) | 85 | 100 | 6 | 0.01 (≈ 0.0295 µM) | –
COc1ccc(-c2nc(CC(=O)[O-])sc2-c2ccc(OC)cc2)cc1.[Li+] | 0.032 | – | – | – | – | –
COc1ccc(-c2nc(C(F)(F)F)sc2-c2ccc(OC)cc2)cc1 [ITAZIGREL] | 0.001 (≈ 0.00274 µM) | 100 | 100 | 83 | 0.01 (≈ 0.0274 µM) | inhibition in vivo at 5 mg/kg (Cavia porcellus [5]): 16.2%; inhibition in vivo at 5 mg/kg (Cavia porcellus [6]): 97%; inhibition in vivo at 5 mg/kg (Cavia porcellus [7]): 10.3%; inhibition in vivo at 5 mg/kg (Cavia porcellus [8]): 93.2%; inhibition in vivo at 5 mg/kg (Cavia porcellus [9]): 68.5%; inhibition in vivo at 0.1 mg/kg (Cavia porcellus [10]): 6%; inhibition in vivo at 5 mg/kg (Cavia porcellus [11]): 48.7%; inhibition in vivo at 5 mg/kg (Cavia porcellus [12]): 0%; inhibition in vivo at 0.5 mg/kg (Cavia porcellus [13]): 68.5%
COc1ccc(-c2ncsc2-c2ccc(OC)cc2)cc1 | 0.032 (≈ 0.108 µM) | – | – | – | – | –
COc1ccc(-c2nc(C(C)(C)CO)sc2-c2ccc(OC)cc2)cc1 | 0.0032 (≈ 0.00866 µM) | – | – | – | 0.01 (≈ 0.0271 µM) | –
